Test results published in US4575498A, “Method for restoring depleted purine nucleotide pools” (priority 1983, dated 1986).

Tested on: cardiac muscle
Assay: AICAriboside infusion in normal myocardium: nucleotide, nucleoside and base content of cardiac muscle biopsies
Details: for TAN: total adenine nucleotide
[1] = cardiac muscle, 10 min postinfusion
[2] = cardiac muscle, 10 min postinfusion, P < 0.05 vs control
[3] = cardiac muscle, 15 min of AICAriboside infusion
[4] = cardiac muscle, 20 min postinfusion
[5] = cardiac muscle, 20 min postinfusion, P < 0.05 vs control
[6] = cardiac muscle, 30 min of AICAriboside infusion
[7] = cardiac muscle, 30 min of AICAriboside infusion, P < 0.05 vs control
[8] = cardiac muscle, 30 min postinfusion
[9] = cardiac muscle, 30 min postinfusion, P < 0.05 vs control
[10] = cardiac muscle, 42 min of AICAriboside infusion
[11] = cardiac muscle, 60 min postinfusion

NC(=O)c1ncn([C@@H]2O[C@H](CO)[C@@H](O)[C@H]2O)c1N [AICAriboside, 5-amino-4-imidazolecarboxamide riboside]
myocardial content of CTP (AICAriboside infusion): no detectable change | mean content of AICAriboside in cardiac muscle greater than that of skeletal muscle (after 30 min of infusion): 66% | adenylosuccinate in biopsies (before, during or after infusion, lower limit of detection 3 nmol/g, wet weight): not detectable | adenylate energy charge (cardiac muscle, 0.929±0.003 before infusion, during course of experiment): did not vary | ADP [1]: 0.83 ± 0.05 μmol/g, wet weight | AMP [1]: 0.054 ± 0.007 μmol/g, wet weight | Hyp (hypoxanthine) [1]: 0.016 ± 0.008 μmol/g, wet weight | Ino (inosine) [1]: 0.009 ± 0.001 μmol/g, wet weight | ATP [2]: 6.07 ± 0.17 μmol/g, wet weight | IMP [2]: 0.018 ± 0.003 μmol/g, wet weight | ADP [3]: 0.77 ± 0.06 μmol/g, wet weight | AMP [3]: 0.056 ± 0.008 μmol/g, wet weight | ATP [3]: 5.77 ± 0.24 μmol/g, wet weight | IMP [3]: 0.020 ± 0.007 μmol/g, wet weight | ADP [4]: 0.81 ± 0.04 μmol/g, wet weight | AMP [4]: 0.054 ± 0.005 μmol/g, wet weight | Hyp (hypoxanthine) [4]: 0.007 ± 0.002 μmol/g, wet weight | IMP [4]: 0.017 ± 0.005 μmol/g, wet weight | Ino (inosine) [4]: 0.007 ± 0.001 μmol/g, wet weight | ATP [5]: 5.83 ± 0.14 μmol/g, wet weight | ADP [6]: 0.82 ± 0.03 μmol/g, wet weight | AMP [6]: 0.050 ± 0.005 μmol/g, wet weight | Hyp (hypoxanthine) [6]: 0.013 ± 0.006 μmol/g, wet weight | IMP [6]: 0.030 ± 0.021 μmol/g, wet weight | Ino (inosine) [6]: 0.012 ± 0.001 μmol/g, wet weight | ATP [7]: 5.89 ± 0.16 μmol/g, wet weight | ADP [8]: 0.84 ± 0.03 μmol/g, wet weight | AMP [8]: 0.055 ± 0.006 μmol/g, wet weight | Hyp (hypoxanthine) [8]: 0.003 ± 0.002 μmol/g, wet weight | Ino (inosine) [8]: 0.009 ± 0.002 μmol/g, wet weight | ATP [9]: 5.98 ± 0.07 μmol/g, wet weight | IMP [9]: 0.016 ± 0.003 μmol/g, wet weight | ADP [10]: 0.77 ± 0.03 μmol/g, wet weight | AMP [10]: 0.053 ± 0.007 μmol/g, wet weight | ATP [10]: 5.77 ± 0.28 μmol/g, wet weight | IMP (cardiac muscle, 42 min of AICAriboside infusion, P < 0.05 vs control): 0.019 ± 0.006 μmol/g, wet weight | ADP [11]: 0.82 ± 0.04 μmol/g, wet weight | AMP [11]: 0.052 ± 0.006 μmol/g, wet weight | ATP [11]: 5.72 ± 0.27 μmol/g, wet weight | Hyp (hypoxanthine) [11]: 0.001 ± 0.001 μmol/g, wet weight | Ino (inosine) [11]: 0.006 ± 0.001 μmol/g, wet weight | IMP (cardiac muscle, 60 min postinfusion, P < 0.05 vs control): 0.017 ± 0.003 μmol/g, wet weight | increase in IMP content (cardiac muscle, AICAriboside infusion): 3-4 fold | maximum UTP content (cardiac muscle, from basal 0.126±0.009, p<0.005): 0.157±0.006 μmol/g, wet weight | guanine nucleotide content (GDP+GTP) (cardiac muscle, significant at one time point only): tended to increase | dogs with guanine nucleotide pool remaining elevated (cardiac muscle, up to 60 min after infusion discontinued): 6 of 7 | adenosine content (cardiac or skeletal muscle, during infusion): did not increase | AMP and ADP content change (cardiac tissue, any time point): did not change significantly | increased ATP content (cardiac tissue, from 5.55±0.17, p<0.02): 6.07±0.17 μmol/g, wet weight | accumulation of AICAriboside-TP (cardiac vs skeletal muscle, quantitated with extinction coefficient of AICAR): greater in cardiac muscle | maximum TAN (total adenine nucleotide) (heart muscle, from basal 6.40±0.20, p<0.005): 6.96±0.20 μmol/g, wet weight | content of NAD^+ (heart, throughout infusion, did not vary): 0.64 ± 0.01 µmol/g | UTP pool increase (myocardial cells, following AICAriboside infusion): 25% | content of inosine and hypoxanthine (myocardial, throughout the study): only minimally increased | TAN [2]: 6.96 ± 0.20 μmol/g, wet weight | TAN [3]: 6.59 ± 0.29 μmol/g, wet weight | TAN [5]: 6.70 ± 0.10 μmol/g, wet weight | TAN [7]: 6.77 ± 0.16 μmol/g, wet weight | TAN [9]: 6.87 ± 0.10 μmol/g, wet weight | TAN [10]: 6.59 ± 0.27 μmol/g, wet weight | TAN [11]: 6.59 ± 0.24 μmol/g, wet weight
